According to patent US20250049904A1, “IMMUNOSTIMULATORY COMPOSITIONS” (VICTORIA LINK LIMITED, priority 2021, published 2025):
“Also recorded” adds a separate entry of the source.

Legend:
[1] = test system: NKT cells in the liver; assay: NKT cell phenotype in the liver after LPX-mRNA vaccination (CD1d/α-GalCer tetramer binding, PD-1); format: in vivo, C57BL/6 mice; conditions: correlates with dose
Protocol: Dose response of LPX-mOVA-α-GalCer versus LPX-mOVA-CI058 vaccines. Analysis was in C57BL/6 mice, without transfer of OT-I cells, so endogenous T cell responses were monitored on a normal T cell repertoire. Groups of 5 mice were used, and vaccines were administered intravenously. After 28 days, mice were killed and liver tissue collected for analysis of induced T cell response by flow cytometry. […] At the same timer, NKT cells in the liver were also evaluated using fluorescent CD1d/α-GalCer tetramers. […] (B) Graph showing mean level of expression of the “invariant” NKT cell-associated TCR for each treatment group (±SEM), defined as level of binding of fluorescent CD1d/α-GalCer tetramers and expressed as mean fluorescence index. ****P<0.0001 (C) Graph showing mean level of expression of PD-1 on NKT cells for each treatment group (±SEM). **P<0.01
Lymphocytes were stained with monoclonal antibodies for: CD8a (53-6.7), Ly5.1 (A20), CD44 (IM7), CXCR6 (SA051D1), CX3CR1 (SA011F11), from BioLegend (Australian Biosearch, Karrinyup, WA. Australia), and CD62L (MEL-14) and CD69 (H1.2F3), from eBioscience (Jomar Life Research, Scoresby, VIC, Australia). […] Single-color positive control samples were used to adjust compensation and cells were analyzed by flow cytometry on a LSR Fortessa (BD Biosciences), or LSRII SORP using Flowjo software (Tree Star Inc.).

[2] = test system: tissue-resident memory T cells (TRM cells); assay: LPX-mRNA vaccination of mice i.v.; antigen-specific TRM, TEM and TCM cells in liver and spleen by flow cytometry; format: in vivo, C57BL/6 mice
Protocol: FIG. 1 provides a graphical representation showing that LPX-mRNA vaccines containing CI058 induce high levels of liver TRM cells. Liposomes were prepared with DOTMA and DOPE lipids and complexed with mRNA encoding chicken ovalbumin (OVA) to give vaccine LPX-mOVA. Additional vaccines were prepared by including either the prototypical NKT cell agonist α-GalCer (LPX-mOVA-α-GalCer) or the derivative CI058, which has BODIPY attached via an —S in the 6 position of the galactose (LPX-mOVA-CI058). Recipient C57BL/6 mice were transferred 50,000 naïve OVA-specific TCR-transgenic CD8+ T cells (OT-I cells) to enhance the precursor frequency of antigen-specific T cells to aid detection of vaccine-induced responses. A day later, groups of mice (n=5-6) were vaccinated intravenously (0.08 nmol) with the different vaccines; a naive mouse was left untreated. After 28 days, mice were killed and liver and spleen collected for analysis of induced T cell response by flow cytometry. Antigen-specific cells were identified using fluorescent MHC/peptide tetramers containing the targeted CD8^+ T cell epitope recognised by OT-I cells, and expression of Ly5.1, a congenic marker expressed by the OT-I mouse strain and not recipient C57BL/6 mice. The antigen-specific cells were further characterised as resident-memory T cells (TRM cells; CD8^+ Ly5.1^+ […] CD62L^low cells), effector memory T cells (TEM cells; CD8^+ Ly5.1^+ CD44^+ CD69^− CD62L^low cells) or central memory cells (TCM cells; CD8^+ Ly5.1^+ CD44^+ CD69^− CD62Lhigh cells). (A) Percentages of TRM, TEM and TCM OT-I cells in each treatment group in liver. Mean±SEM for each T cell subset are shown; statistical analysis relates only to pairwise comparisons of the percentage of TRM cells between the treatment groups. Black bars: TRM cells; white bars: TEM cells; grey bars: TCM cells. *P<0.05, **P<0.01, ***P<0.001, ****P<0.0001. One-way ANOVA. (B) Percentages of RM, TEM and TCM OT-I cells in each treatment group in spleen. (C) Mean number of TRM cells in liver for each treatment group (±SEM); dots represent individual mice. Black bars: TRM cells; white bars: TEM cells; grey bars: TCM cells. *P<0.05, **P<0.01, ***P<0.001, ****P<0.0001. One-way ANOVA.
Dose response of LPX-mOVA-α-GalCer versus LPX-mOVA-CI058 vaccines. Analysis was in C57BL/6 mice, without transfer of OT-I cells, so endogenous T cell responses were monitored on a normal T cell repertoire. Groups of 5 mice were used, and vaccines were administered intravenously. After 28 days, mice were killed and liver tissue collected for analysis of induced T cell response by flow cytometry. Antigen-specific cells were identified using fluorescent MHC/peptide tetramers, and further characterised as resident-memory T cells (TRM CD8^+ CD44^+ CD69^+ CXCR6^+ CD49a^+ CD62L^low cells), effector memory T cells (TEM CD8^+ CD44^+ CD69^− KLRG1^+ CXCR3^+ CD62L^low cells) or central memory cells (TCM CD8^+ CD44^+ CD69^− CD62L^high cells). At the same timer, NKT cells in the liver were also evaluated using fluorescent CD1d/α-GalCer tetramers. These were characterised for expression of different markers of activation, including PD-1 (only the latter is shown here). White circles: LPX-mOVA-α-GalCer; black circles: LPX-mOVA-CI058. (A) Graph showing mean number of TRM cells in liver for each treatment group (±SEM) overdose range. ****P<0.0001. (B) Graph showing mean level of expression of the “invariant” NKT cell-associated TCR for each treatment group (±SEM), defined as level of binding of fluorescent CD1d/α-GalCer tetramers and expressed as mean fluorescence index. ****P<0.0001 (C) Graph showing mean level of expression of PD-1 on NKT cells for each treatment group (±SEM). **P<0.01
To examine whether a prodrug mechanism is involved in enhanced TRM cell induction, LPX-mOVA-CI058 vaccines were compared to vaccines containing different NKT cell agonist prodrugs. […]

## CCCCCCCCCCCCCCCCCCCCCCCCCC(=O)N[C@@H](CO[C@H]1O[C@H](CSCC(=O)Nc2ccc(C3=C4C(C)=CC(C)=[N+]4[B-](F)(F)n4c(C)cc(C)c43)cc2)[C@H](O)[C@H](O)[C@H]1O)[C@H](O)[C@H](O)CCCCCCCCCCCCCC [CI058, (2S,3S,4R)-1-(6-Deoxy-6-((2-((4-(5,5-difluoro-1,3,7,9-tetramethyl-5H-4λ4,5λ4-dipyrrolo[1,2-c:2′,1′-f][1,3,2]diazaborinin-10-yl)phenyl)amino)-2-oxoethyl)thio)-α-D-galactopyranosyloxy)-2-hexacosanoylamino-3,4-octadecandiol]
[1]; CD1d/α-GalCer tetramers
  expression of NKT cell-associated invariant TCR in liver: significantly reduced expression
[1]
  expression of PD-1 on liver NKT cells: significantly increased expression
[2]; LPX vaccines with vs without CI058
  overall level of T cell accumulation in liver: higher overall levels of T cell accumulation in liver
[2]; LPX-mOVA vaccines i.v., 28-30 days, compared to vaccines with α-GalCer or without agonist
  accumulation (population size) of TRM cells in liver: significantly larger populations of TRM cells in the liver tissue; also recorded: significantly enhanced populations of liver TRM cells; also recorded: also enhanced
[2]; LPX-mOVA vaccines i.v., OT-I cell transfer, 28 days after vaccination
  proportion of TRM cells among antigen-specific T cells in liver and spleen: enhanced in both tissues, although is consistently more pronounced in liver; also recorded: significantly biased towards TRM cells
[2]; LPX-mOVA-CI058 vs LPX-mOVA-α-GalCer, no OT-I transfer, day 28
  peak level of liver TRM cells in dose response: significantly higher than achieved with vaccines with α-GalCer
[2]; dose response, LPX-mOVA-CI058 vs LPX-mOVA-α-GalCer, no OT-I transfer, day 28
  lower dose giving parity in liver TRM cell levels with α-GalCer vaccine: 10 fold
[2]; endogenous T cell response, no T cell transfer, 30 days
  liver TRM cell induction, vaccine encoding malaria antigen RPL6: enhancing liver TRM cell induction
